Biological target: T1, Toll-like receptor 7 (Homo sapiens, UniProt Q9NYK1)
T1 sequence (Q9NYK1 whole entry): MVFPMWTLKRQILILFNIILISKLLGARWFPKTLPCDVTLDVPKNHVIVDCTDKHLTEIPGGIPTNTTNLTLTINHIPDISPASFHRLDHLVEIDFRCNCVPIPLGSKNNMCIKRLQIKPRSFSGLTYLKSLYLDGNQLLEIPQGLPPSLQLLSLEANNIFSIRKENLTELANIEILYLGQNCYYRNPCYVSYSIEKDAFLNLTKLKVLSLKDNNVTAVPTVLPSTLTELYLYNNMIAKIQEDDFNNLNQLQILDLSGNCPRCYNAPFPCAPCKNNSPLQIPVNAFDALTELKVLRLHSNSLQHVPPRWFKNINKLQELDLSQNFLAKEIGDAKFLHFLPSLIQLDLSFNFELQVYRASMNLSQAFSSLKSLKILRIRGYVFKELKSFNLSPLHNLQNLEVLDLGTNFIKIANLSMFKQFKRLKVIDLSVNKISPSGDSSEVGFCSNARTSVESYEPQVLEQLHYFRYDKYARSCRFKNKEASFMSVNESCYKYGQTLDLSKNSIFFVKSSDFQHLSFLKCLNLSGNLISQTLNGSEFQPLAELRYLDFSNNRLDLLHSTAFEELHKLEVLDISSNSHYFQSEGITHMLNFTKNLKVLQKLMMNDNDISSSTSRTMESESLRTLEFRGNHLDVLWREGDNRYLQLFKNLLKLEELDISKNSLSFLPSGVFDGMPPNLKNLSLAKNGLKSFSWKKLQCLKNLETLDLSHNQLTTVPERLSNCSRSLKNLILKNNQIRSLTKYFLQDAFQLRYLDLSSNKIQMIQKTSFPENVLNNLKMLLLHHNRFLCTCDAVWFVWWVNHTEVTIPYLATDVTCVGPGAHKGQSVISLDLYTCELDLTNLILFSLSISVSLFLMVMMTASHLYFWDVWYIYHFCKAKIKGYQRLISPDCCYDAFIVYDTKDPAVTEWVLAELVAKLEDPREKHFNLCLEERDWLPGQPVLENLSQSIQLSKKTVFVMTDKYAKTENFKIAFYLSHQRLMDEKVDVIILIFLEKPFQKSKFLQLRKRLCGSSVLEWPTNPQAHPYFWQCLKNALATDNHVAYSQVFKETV
Assay: HEK293-Blue-hTLR-7 Cells Ass: A stable HEK293-Blue-hTLR-7 cell line was purchased from InvivoGen (Cat.#: hkb-htlr7, San Diego, Calif., USA). These cells were designed for studying the stimulation of human TLR7 by monitoring the activation of NF-κB. A SEAP (secreted embryonic alkaline phosphatase) reporter gene was placed under the control of the IFN-β[…] minimal promoter fused to five NF-κB and AP-1-binding sites. The SEAP was induced by activating NF-κB and AP-1 via stimulating HEK-Blue hTLR7 cells with TLR7 ligands. Therefore the reporter expression was regulated by the NF-κB promoter upon stimulation of human TLR7 for 20 hours. The cell culture supernatant SEAP reporter activity was determined using QUANTI-Blue kit (Cat.#: rep-qb1, Invivogen, San Diego, Calif., USA) at a wavelength of 640 nm, a detection medium that turns purple or blue in the presence of alkaline phosphatase.HEK293-Blue-hTLR7 cells were incubated at a density of 250,000 ~ 450,000 cells/mL in a volume of 180 μL in a 96-well plate in Dulbecco's Modified Eagle's medium (DMEM) containing 4.5 g/L glucose, 50 U/mL penicillin, 50 […], 100 […], 2 mM L-glutamine, 10% (v/v) heat-inactivated fetal bovine serum for 24 h. […]

For `CCC(O)[C@@H]1C[C@@H](OC(C)=O)[C@H](n2c(=O)sc3c(=O)[nH]c(N)nc32)O1` (single isomer, unassigned), the EC50 was 48 µM.

— ChEMBL document CHEMBL5725638, “3-substituted 5-amino-6H-thiazolo[4,5-d]pyrimidine-2,7-dione compounds for the treatment and prophylaxis of virus infection” (2018)
